Patent publication US8748339B2, “Synergistic fungicidal mixtures” (priority 2008, dated 2014)
Like-named read-outs stand apart in the source and are kept apart here.

How the values were obtained:
Assay type in all cases: cell-based
[1] = test system: Septoria tritici; experiment: Activity against leaf blotch on wheat caused by Septoria tritici in the microtiter test (Septtr); settings: single active compound, day 7 after inoculation
[2] = test system: Phytophthora infestans; settings: single active compound, 7 days after inoculation
[3] = test system: Fusarium culmorum; experiment: Activity against Fusarium culmorum in the microtiter test (Fusacu); settings: single active compound, day 7 after inoculation
[4] = test system: Pyrenophora teres; experiment: Activity against Pyrenophora teres in the microtiter test (Pyrnte); settings: single active compound, day 7 after inoculation

N#Cc1c(Cl)c(Cl)c(Cl)c(C#N)c1Cl [Chlorothalonil, 2,4,5,6-tetrachloroisophthalonitrile]
Observed efficacy [%] ([1]; 0.25 ppm): 46%

Cc1cc(C2CC2)nc(Nc2ccccc2)n1 [Cyprodinil, (4-cyclopropyl-6-methylpyrimidin-2-yl)phenylamine]
Observed efficacy [%] ([1]; 1 ppm): 13%

CCO[PH](=O)O [Fosetyl-Al]
Observed efficacy [%] ([2]; 16 ppm): 35%

C=CCSC(=O)n1c(N)c(-c2ccccc2C)c(=O)n1C(C)C [I.1, 5-amino-2-isopropyl-3-oxo-4-o-tolyl-2,3-dihydro-pyrazole-1-carbothioic acid ally ester]
Observed efficacy [%] ([1]; 4 ppm): 37%
Observed efficacy [%] ([3]; 63 ppm): 14%
Observed efficacy [%] ([2]; 16 ppm): 16%
Observed efficacy [%] ([2]; 63 ppm): 37%
Observed efficacy [%] ([4]; 1 ppm): 34%

COC=C(C(=O)OC)c1ccccc1COc1cccc(C(F)(F)F)n1 [Picoxystrobin, methyl 3-methoxy-2-[2-(6-trifluoromethylpyridin-2-yloxymethyl)phenyl]-acrylate]
Observed efficacy [%] ([4]; 0.016 ppm): 31%

COC(=O)N(OC)c1ccccc1COc1ccn(-c2ccc(Cl)cc2)n1 [Pyraclostrobin, methyl N-{2-[1-(4-chlorophenyl)-1H-pyrazol-3-yloxymethyl]phenyl}(N-methoxy)carbamate]
Observed efficacy [%] ([3]; 0.25 ppm): 5%

zinc propylenebis(dithiocarbamate) polymer [Propineb]
Observed efficacy [%] ([2]; 1 ppm): 21%
